# From patent US10183030B2, “17α,21-diesters of cortexolone for use in the treatment of tumors” (COSMO TECHNOLOGIES LTD., priority 2014, dated 2019)
# pIC50: −log10 of the molar value.
# Key:
# Type in all cases: cell-based
# [1] = test system: PSA secretion from LNCaP prostate cancer cells; assay: PSA secretion from LNCaP cells (Elisa); conditions: Homo sapiens, 48 hours, read-out: IC50, inhibition of PSA secretion
# Protocol: (§1) Prostate-specific antigen, or PSA, is a protein produced by cells of the prostate gland. The PSA test measures the level of PSA in a person's blood. The blood level of PSA is often elevated in men with prostate cancer and it used as surrogate marker to test prostate cancer progression in human population. After the observation that CB-03-10 was able to inhibit in vivo the growth of prostate cancer, the capability of the compound to inhibit in vitro PSA secretion from cancer cells was determined. […] After 48 hours incubation with test compounds, supernatants were harvested and tested with an Elisa assay for PSA and same cells were lysed for cell viability assessment.
# LNCaP cells = assay: LNCaP cell viability in the PSA secretion experiment; conditions: Homo sapiens, 48 hours, same cells as PSA assay
# Protocol: as §1, with “population.” for “population. After the observation that CB-03-10 was able to inhibit in vivo the growth of prostate cancer, the capability of the compound to inhibit in vitro PSA secretion from cancer cells was determined.”
# MDA-MB-231 TNBC cells = assay: In vitro proliferation / cytotoxic assay, MDA-MB-231
# Protocol: After 72 hours incubation cell were harvested, lysed and viability determined using the cell titer glow assay for viability.
pIC50 [1],pIC50 (LNCaP cells),SMILES,"pIC50 (MDA-MB-231 TNBC cells; Homo sapiens, MDA-MB-231 (ER−PR−GR++), 72 hours, Table VI, unit inferred, read-out: IC50 on breast cancer cells)","maximum inhibition of viability (MDA-MB-231 TNBC cells; MDA-MB-231, at 100 μM) [%]"
3.21,3.82,C[C@]12CCC(=O)C=C1CC[C@@H]1[C@@H]2CC[C@@]2(C)[C@H]1CC[C@]2(O)C(=O)CO [Cortexolone],–,–
> 5.52,–,CNC(=O)c1ccc(N2C(=S)N(c3ccc(C#N)c(C(F)(F)F)c3)C(=O)C2(C)C)cc1F [Enzalutamide],–,–
–,–,"CC#C[C@]1(O)CC[C@H]2[C@@H]3CCC4=CC(=O)CCC4=C3[C@@H](c3ccc(N(C)C)cc3)C[C@@]21C [RU486, Mifepristone]",3.36,25
